Where two headings read alike, the source gives them in different places.

The subject of series [1] is scopolamine-induced deficit in mice. The experiment in a line: Modified light-dark box memory test in mice, scopolamine-induced deficit, drug given pre-training (Table 1). As to conditions: for Mean latency Day 1 / Mean latency Day 2: ± SEM. It is filed as in vivo, Male albino CD-1 mice. As for the experimental part: (§1) Male albino CD-1 mice obtained from Charles River were used. They were housed under controlled conditions (temperature 21±2 deg. C., humidity approx. 50%, 12 hour light/dark cycle, food and water ad lib) for one week before use. On the day before test, the mice were housed in groups of six in polythene boxes in the laboratory and marked for identification. Food and water were supplied ad lib. On the test day, animals were weighed and then dosed either 30 minutes before test (piracetam, ondansetron) one hour before test (compound A) or immediately after test.
All drugs were dissolved or suspended in 0.25% (w/v) aqueous celacol, and administered orally (by gavage), i.p. or s.c. The dose volume was 10 ml/kg for all routes.
(§2) The apparatus consisted of two boxes with an opening 90 mm×60 mm at floor level between them. A plastic door was used to close the opening when required. The smaller box (290 mm×120 mm×120 mm high) was made of opaque plastics, open at the top to allow illumination by normal laboratory lighting. The larger box (305 mm square×280 mm high) was enclosed apart from the single opening.
(§3) This consisted of training, with retest 24 hours later. During training, animals were placed individually in the open box facing away from the end with the opening. After a period of exploration, they usually entered the dark box and the latency to entry in seconds was noted. The door to the dark box was closed, and after 30 seconds had elapsed, the animal was removed gently and returned to the holding box. Twenty-four hours later, an identical procedure was used, except that the session ended as soon as the animal had entered the dark box. The latency was again noted. During the interval, the animals were not handled, and were disturbed as little as possible. Each animal was used once only.
(§4) Test drugs or control fluids were given before or immediately after the training session.
Group comparisons were made between latencies to enter the dark compartment on the first and second occasions. For both training and retest occasions, comparisons were made between vehicle and treatment groups. […] The difference between latencies on the two occasions is presented as % decrease on Day 2 compared with Day 1.
(§5) The mean latency to enter the dark box±standard error of the mean was calculated from a group of 12 animals. For a given treatment, figures in the columns labelled `Day 1` and `Day 2` show the mean latencies taken from the same group of animals. The difference between data obtained on the two days is illustrated by showing the % decrease, and the data compared using the Mann-Whitney U-test; NS indicates a p value>0.1.

The subject of series [2] is scopolamine effect. To be noted: cited from earlier work; for Reversal of the scopolamine effect: screen for nootropic compounds.
The subject of series [3] is scopolamine-induced deficit in mice. The experiment in a line: Modified light-dark box memory test in mice, scopolamine-induced deficit, drug given immediately post-training (Table 2). It is filed as in vivo, Male albino CD-1 mice. To be noted: for Mean latency Day 1 / Mean latency Day 2: ± SEM. The procedure: as §1
[…] The dose volume was 10 ml/kg for all routes.
as §2, §3, §4
Group comparisons were made between latencies to enter the dark compartment on the first and second occasions. For both training and retest occasions, comparisons were made between vehicle and treatment groups. The distribution of latencies was skewed on both learning and retest trials (data not shown), so the non-parametric Mann-Whitney U-test was used. The difference between latencies on the two occasions is presented as % decrease on Day 2 compared with Day 1.
as §5

In series [4] the test system is scopolamine-induced deficit in rats. The experiment in a line: Light-dark box memory test in rats, scopolamine-induced deficit, single dose pre-training (Tables 3 and 4). It is filed as in vivo, Male Wistar rats. As to conditions: for Mean latency Day 1 / Mean latency Day 2: ± SEM; for Effect on expected decrease in latency on retest: scopolamine 0.1 mg/kg. As for the experimental part: (§6) Male Wistar rats obtained from Charles River were used. They were housed under controlled conditions (temperature 21±2 deg. C., humidity approx. 50%, 12 hour light/dark cycle, food and water ad lib) for one week before use. On the day before test the rats were permanently housed in groups of six. Food and water were supplied ad lib. On the test day, animals were weighed and then dosed either 30 minutes before test (midazolam), one hour before test (compound A) or immediately after test.
(§7) All drugs were dissolved or suspended in 0.25% (w/v) aqueous celacol, and administered orally (by gavage), i.p. or s.c. The dose volume was 5 ml/kg for all routes.
(§8) An identical apparatus to that described in Example 1 was used, except that the smaller box measured 370 mm×260 mm×190 mm.
(§9) This consisted of training as described for mice under section (d) of Example 1.
as §4
(§10) This was as described under section (e) of Example 1.

For series [5] the following is noted: isethionate salt, cited from earlier work.
In series [6] the test system is scopolamine-induced deficit in rats. The experiment in a line: Light-dark box memory test in rats, sub-acute dosing: pre-training, pre-training and pre-retest, or four pre-treatments and before training and retest (Table 5). It is filed as in vivo, Male Wistar rats. The procedure:
as §6
In the sub-acute dosing regimen (see `Procedure`) the rats, housed as above, received six doses of drug or vehicle by the oral route, each 24 hours apart.
as §7, §8, §9
The procedure was identical with that described above, except that seven groups of rats received compound A or control pre-treatment as 6 oral doses each 24 hours apart, as follows.
Training took place 1 hour after the fifth dose i.e. on day 5. […] The usual retest was performed 24 hours later (on day 6), one hour after the sixth oral treatment.
as §10
The mean latency to enter the dark box±standard error of the mean was calculated from a group of 24 animals (controls in first block) or 12 animals (all other treatments). For a given treatment, figures in the columns labelled `Day 5` and `Day 6` show the mean latencies taken from the same group of animals. The difference between data obtained on the two days is illustrated by showing the % decrease, and the data compared using the Mann-Whitney U-test.

Series [7] deals with scopolamine-induced pupillary dilatation in rats. The experiment in a line: Pupil diameter measurement in rats (Table 6). It is filed as in vivo, Male Wistar rats. The procedure:
(§11) 15 minutes before observation. Under these conditions, which were identical to those used in the learning experiments described in Example 2, changes in salivation and pupil diameter were measured. Salivation was measured by placing a piece of folded filter paper in the rat's mouth and measuring the diameter of the blot in mm after 1 minute. Pupil diameter was measured using a magnifying glass and graticule under normal lighting conditions. For both measures, comparisons were made between control and drug-treated groups using a Student's T-test on independent samples.
(§12) Groups of 6 animals were used.

Series [8] has as its system scopolamine-induced dry mouth in rats. The experiment in a line: Salivation measurement in rats (Table 6). It is filed as in vivo, Male Wistar rats. As to conditions: scopolamine, vehicle-pretreated rats; p<0.01. As for the experimental part: as §11, §12
Where [9] appears, read: scopolamine 1 mg/kg s.c. + ondansetron 0.01 ug/kg i.p.
[10] abbreviates: scopolamine 1 mg/kg s.c. + ondansetron 1.0 ug/kg i.p.
[11] abbreviates: scopolamine 1 mg/kg s.c. + ondansetron 100 ug/kg i.p.
The mark [12] stands for this setting: saline s.c. + piracetam 2000 mg/kg i.p.
[13] abbreviates: scopolamine 1 mg/kg s.c. + piracetam 2000 mg/kg i.p.
The mark [14] stands for this setting: saline s.c. + piracetam 2000 mg/kg i.p. post-training.
Setting [15] is: scopolamine 1 mg/kg s.c. + piracetam 2000 mg/kg i.p. post-training.
Setting [16] is: saline s.c. + midazolam 0.5 mg/kg i.p.
Setting [17] is: scopolamine 0.1 mg/kg s.c. + midazolam 0.5 mg/kg i.p.
The mark [18] stands for this setting: scopolamine 1 mg/kg s.c. + celacol.
[19] abbreviates: scopolamine 1 mg/kg s.c. + saline (piracetam experiment).
Where [20] appears, read: scopolamine 1 mg/kg s.c. + saline.
Where [21] appears, read: scopolamine 0.1 mg/kg s.c. + celacol (Table 3).
The mark [22] stands for this setting: scopolamine 0.1 mg/kg s.c. + saline (Table 4).
[23] abbreviates: scopolamine 0.1 mg/kg s.c. + celacol days 1-6, ± SEM.

With `Cc1nccn1CC1CCc2c(c3ccccc3n2C)C1=O` (stereo not shown) [Ondansetron, 1,2,3,9-tetrahydro-9-methyl-3-[(2-methyl-1H-imidazol-1-yl)methyl]-4H-carbazol-4-one], the “Difference between days, % Decrease” value was -28% in series [1] (scopolamine 1 mg/kg s.c. + ondansetron 0.01 ug/kg i.p., p NS); -5% in series [1] (scopolamine 1 mg/kg s.c. + ondansetron 1.0 ug/kg i.p., p NS); 28% in series [1] (scopolamine 1 mg/kg s.c. + ondansetron 100 ug/kg i.p., p <0.05). Besides, the “Mean latency Day 1” value in series [1] (setting [9]) was found to be 15.6 ± 1.8 s; in series [1] (setting [10]), 14.3 ± 1.4 s; in series [1] (setting [11]), 16.3 ± 1.9 s. In addition, the “Mean latency Day 2” value is 20.0 ± 1.9 s in series [1] (setting [9]), 14.9 ± 1.2 s in series [1] (setting [10]) and 11.8 ± 1.5 s in series [1] (setting [11]). Further, the “Reversal of the scopolamine effect” value in series [2] is on record as “positive results”.

As for `NC(=O)CN1CCCC1=O` [Piracetam], in series [1] (piracetam 2000 mg/kg i.p. + scopolamine, pre-training, p<0.05), the “Day 2 latency versus scopolamine-treated control animals” value is “significantly different”. Also, the “Difference between days, % Decrease” value in series [1] (saline s.c. + piracetam 2000 mg/kg i.p., p <0.01) turned out to be 44%; in series [1] (scopolamine 1 mg/kg s.c. + piracetam 2000 mg/kg i.p., p NS*), 27%; in series [3] (saline s.c. + piracetam 2000 mg/kg i.p. post-training, p <0.05) it was 28%; in series [3] (scopolamine 1 mg/kg s.c. + piracetam 2000 mg/kg i.p. post-training, p NS*), 6%. Moreover, the “Mean latency Day 1” value in series [1] (setting [12]) turned out to be 21.4 ± 4.7 s; in series [1] (setting [13]), 19.1 ± 2.4 s; in series [3] (setting [14]), 18.8 ± 2.0 s; in series [3] (setting [15]), 19.2 ± 1.8 s. In addition, the “Mean latency Day 2” value in series [1] (setting [12]) worked out at 12.1 ± 1.2 s; in series [1] (setting [13]), 13.9 ± 1.8 s; in series [3] (setting [14]), 13.5 ± 1.7 s; in series [3] (setting [15]), 18.0 ± 1.8 s. In series [2], the “Reversal of the scopolamine effect” value is “positive results”.

As for `Cc1ncc2n1-c1ccc(Cl)cc1C(c1ccccc1F)=NC2` [Midazolam], the “Reversal of scopolamine-induced deficit” value in series [4] (midazolam 0.5 mg/kg i.p.) is listed as “did not reverse the scopolamine-induced deficit”. Also, the “Difference between days, % Decrease” value in series [4] (saline s.c. + midazolam 0.5 mg/kg i.p., p (0.09)) came out at 29%; in series [4] (scopolamine 0.1 mg/kg s.c. + midazolam 0.5 mg/kg i.p., p NS), 9%. In addition, the “Mean latency Day 1” value in series [4] (setting [16]) worked out at 39.9 ± 4.9 s; in series [4] (setting [17]), 37.0 ± 4.0 s. The “Mean latency Day 2” value in series [4] (setting [16]) is 28.2 ± 2.7 s; in series [4] (setting [17]), 33.6 ± 3.4 s.

`Nc1nnc(-c2cccc(Cl)c2Cl)c(N)n1` [3,5-diamino-6-(2,3-dichlorophenyl)-1,2,4-triazine isethionate]: the Solubility result was “good solubility” in series [5] and “particularly good solubility” in series [5] (listed as The salt with isethionic acid).

With `CN1[C@@H]2C[C@@H](OC(=O)[C@H](CO)c3ccccc3)C[C@H]1[C@@H]1O[C@@H]12` [Scopolamine], the “Difference between days, % Decrease” value was -10% in series [1] (scopolamine 1 mg/kg s.c. + celacol, p NS); -2% in series [1] (scopolamine 1 mg/kg s.c. + saline (ondansetron experiment), p NS); -27% in series [1] (scopolamine 1 mg/kg s.c. + saline (piracetam experiment), p NS); -36% in series [3] (scopolamine 1 mg/kg s.c. + saline, p (0.07, up)); 0% in series [4] (scopolamine 0.1 mg/kg s.c. + celacol (Table 3), p NS); -16% in series [4] (scopolamine 0.1 mg/kg s.c. + saline (Table 4), p NS). Besides, the “Mean latency Day 1” value in series [1] (setting [18]) was 18.8 ± 1.8 s; in series [1] (scopolamine 1 mg/kg s.c. + saline (ondansetron experiment)), 16.5 ± 1.3 s; in series [1] (setting [19]), 18.9 ± 1.4 s; in series [3] (setting [20]), 19.5 ± 2.3 s; in series [4] (setting [21]), 44.4 ± 4.3 s; in series [4] (setting [22]), 34.4 ± 5.2 s. The “Mean latency Day 2” value in series [1] (setting [18]) was 20.7 ± 2.3 s; in series [1] (setting [19]), 24.0 ± 2.5 s; in series [3] (setting [20]), 26.5 ± 2.7 s; in series [4] (setting [21]) it was 44.5 ± 3.7 s; in series [4] (setting [22]), 39.8 ± 4.5 s. Also, the “Effect on expected decrease in latency on retest” value in series [1] (scopolamine 1 mg/kg, vehicle-treated mice) was “abolished this effect”; in series [4] (vehicle-treated rats (Table 3)) it was “reversed this effect”; in series [4] (vehicle-treated rats (Table 4)), “prevented this effect”. For the same molecule, in series [6] (scopolamine 0.1 mg/kg s.c. + celacol days 1-6, p NS), the “Diff. between days, %” value is recorded as -3%. The “Mean latency Day 5” value in series [6] (setting [23]) is 33.5 ± 2.2 s. Also, the “Mean latency Day 6” value in series [6] (setting [23]) came to 34.4 ± 2.5 s. In addition, in series [6] (scopolamine 0.1 mg/kg, vehicle-treated rats), the “Effect on expected decrease in mean latency” value is on record as “reversed by scopolamine”. Besides, the Mean pupil diameter in series [7] (celacol p.o. + scopolamine 0.1 mg/kg s.c., ± SEM) is 22.8 ± 1.65 mm × 10. Besides, the “Effect on pupil diameter” value in series [7] (scopolamine, vehicle-pretreated rats, p<0.01) is reported as “significantly increased pupil diameter”. For the same molecule, in series [8], the Effect on salivation entry is listed as “reduced salivation”. Besides, the Effect on memory entry in series [2] (given before or immediately after a learning trial) was “can abolish the memory”.

The values are drawn from US5866597A, “Use of triazine compounds for the treatment of memory and learning disorders” (Glaxo Wellcome Inc., priority 1993, dated 1999).
